From patent US20260184721A2, “FUSED RING COMPOUND, CONJUGATE THEREOF AND USE THEREOF” (Keymed Biosciences (Chengdu) Co., Ltd., priority 2022, published 2026) come the findings set out here.

In test [1] the test system is SK-BR-3 tumor cells. In words: In vitro proliferation inhibitory activity of compounds of Formula (GH) on SK-BR-3 tumor cells (CCK8). The note with it: Homo sapiens, SK-BR-3, 72 h, 3 days of culture, read-out: IC50 for inhibiting proliferation of SK-BR-3 cells in vitro. The test is classed as cell-based. The protocol: The objective of this experiment is to detect the in vitro killing activity of the compound of Formula (GH) of the present disclosure on SK-BR-3 tumor cells (human breast cancer cells, Wuhan Procell, Catalog No. CL-0211). The cells were treated with different concentrations of the compound in vitro. After 3 days of culture, the number of viable cells was detected using CCK8 (Cell Counting Kit-8, Catalog No. TS547) reagents, and the in vitro activity of the test compound was evaluated according to the IC50 value.
Taking the test method of in vitro killing activity on SK-BR-3 cells as an example, the following test was performed. […] After the cells were completely digested, 10 mL of cell culture medium containing 2% FBS was added to wash out the digested cells, centrifugation was performed at 300 g for 5 min, the supernatant was discarded, and then 10 to 20 mL of cell culture medium containing 2% FBS was added to resuspend the cells to prepare a single cell suspension. • (3) Cell plating: The SK-BR-3 single cell suspension was mixed well, the viable cell density was adjusted to 6×10^4 cells/mL with the cell culture medium containing 2% FBS, the cell suspension after density adjustment was mixed well, and added to a 96-well cell culture plate at 100 μL/well. Only 200 μL of PBS was added to the peripheral wells of the 96-well plate. The culture plate was incubated in an incubator for 24 hours (37° C., 5% CO2). • (4) Compound preparation: The compound was dissolved in DMSO (dimethyl sulfoxide, SIGMA) to prepare a 2 mM stock solution.
The starting concentrations of small molecule compounds and Dxd were both 600 nM, and the preparation method was as follows.
Then, 315 μL of different samples to be tested were added to the first column of a 96-well U-bottomed drug distribution plate, and the sample concentration was 1200 nM; 210 μL of the cell culture medium containing 2% FBS was added to each well of the second to tenth columns. 105 μL of the sample was taken from the first column and added to the 210 μL cell culture medium in the second column and mixed well, and 105 μL was taken and added to the third column, and so on to the tenth column. • (5) Sample loading operation: 100 μL of the sample to be tested of different concentrations was added to the culture plate, and two replicate wells were set for each sample. The culture plate was incubated in an incubator for 3 days (37° C., 5% CO2). • (6) Color development operation: The 96-well cell culture plate was taken out, the cell culture supernatant was removed by tapping, 100 μL of the RPMI 1640 basal medium (without FBS) containing 10% CCK8 was added, and then it was incubated in an incubator for about 1.5 hours (37° C., 5% CO2). • (7) Plate reading operation: The 96-well cell culture plate was taken out, placed in an ELISA reader (MD SpectraMax i3X), and A450 was determined by the ELISA reader. • (8) Data analysis: Microsoft Excel and Graphpad Prism 5 were used to process and analyze the data.

Test [2] relates to NCI-N87 tumor cells. Nature of the test: In vitro proliferation inhibitory activity of compounds of Formula (GH) on NCI-N87 tumor cells (CCK8). Format: cell-based, human. The following applies: Homo sapiens, read-out: IC50 for inhibiting proliferation of NCI-N87 cells in vitro. The protocol: The objective of this experiment is to detect the in vitro killing activity of the compound of Formula (GH) disclosed in the present invention on NCI-N87 tumor cells (human gastric cancer cells, Cell Resource Center, Institute of Basic Medicine, Chinese Academy of Medical Sciences, Catalog No. 3111C0001CCC000481). The cells were treated with different concentrations of the compound in vitro, and after 6 days of culture, the number of viable cells was detected using CCK8 (Cell Counting Kit-8, Catalog No. TS547) reagents, and the in vitro activity of the test compound was evaluated according to the IC50 value.
• (1) Cell culture: NCI-N87 cells were cultured in the RPMI 1640 medium containing 2% FBS (Shanghai BasalMedia Technologies Co., Ltd., Catalog No. L210KJ). • (2) Cell preparation: NCI-N87 cells in the logarithmic growth phase were taken, washed once with PBS (phosphate buffered saline, Shanghai BasalMedia Technologies Co., Ltd., Catalog No. E211004), added with 1 mL of trypsin (0.25% Trypsin-EDTA (1×), Shanghai BasalMedia Technologies Co., Ltd., Catalog No. A121002) to allow digestion for 2 to 3 minutes. After the cells were completely digested, 10 mL of the cell culture medium was added to wash off and obtain the digested cells, centrifugation was performed at 300 times gravitational acceleration (g) for 5 min, the supernatant was discarded, then 10 mL of PBS was added to wash the cells once, centrifugation was performed at 300 times gravitational acceleration (g) for 5 minutes, the supernatant was discarded, and 10 mL of the cell culture medium containing 2% FBS was added to resuspend the cells to prepare a single cell suspension. • (3) Cell plating: The NCI-N87 single cell suspension was mixed, the density of live cells was adjusted to 3×10^4 cells/mL with 2% FBS cell culture medium, the cell suspension after density adjustment was mixed well, and added to a 96-well cell culture plate at 100 μL/well. Only 200 μL of PBS was added to each of the peripheral wells of the 96-well plate. The plate was incubated in an incubator for 24 hours (37° C., 5% CO2). • (4) Preparation of sample to be tested:
The sample to be tested was diluted to 3200 nM with cell culture medium containing 2% FBS, then 300 μL of the sample was added to the first well of a 96-well U-bottomed plate with a sample concentration of 3200 nM; and 210 μL of cell culture medium containing 2% FBS was added to each well of the second to tenth columns. 70 μL of the sample was taken from the first column and added to the 210 μL cell culture medium in the second column and mixed well, 70 μL was taken and added to the third column, and so on to the ninth column. • (5) Sample loading operation: 100 μL of the sample to be tested with different concentrations was added to the culture plate, two replicate wells were set for each sample. The culture plate was incubated in an incubator for 6 days (37° C., 5% CO2). • (6) Color development operation: The 96-well cell culture plate was taken out, the supernatant of the culture medium was removed by tapping, 100 μL of 10% CCK8 (prepared with RPMI 1640 basal culture medium, without FBS) solution was added to each well, and incubation was performed in an incubator for 2 hours. • (7) Plate reading operation: The 96-well cell culture plate was taken out, placed in an ELISA reader (SpectraMax i3X), and A450 was determined by the ELISA reader. • (8) Data analysis: Microsoft Excel and Graphpad Prism 5 were used to process and analyze the data.

Where two headings read alike, the source gives them in different places.

As to `Cc1c(F)cc2nc3c(c4c2c1CC[C@@H]4NC(=O)[C@@H](C)O)Cn1c-3cc2c(c1=O)COC(=O)[C@]2(O)CC1CC1` [Compound 3-A, (R)-N-((1S,9S)-9-(cyclopropylmethyl)-5-fluoro-9-hydroxy-4-methyl-10,13-dioxo-2,3,9,10,13,15-hexahydro-1H,12H-benzo[de]pyrano[3′,4′:6,7]indolizino[1,2-b]quinolin-1-yl)-2-hydroxypropanamide], the IC50 amounted to 5.91 nM in test [1] and 5.28 nM in test [2] (NCI-N87, 6 days of culture, CCK8).
`Cc1c(F)cc2nc3c(c4c2c1CC[C@@H]4NC(=O)[C@@H](O)C1CC1)Cn1c-3cc2c(c1=O)COC(=O)[C@]2(O)CC1CC1` [Compound 4-A, (S)-2-Cyclopropyl-N-((1S,9S)-9-(cyclopropylmethyl)-5-fluoro-9-hydroxy-4-methyl-10,13-dioxo-2,3,9,10,13,15-hexahydro-1H,12H-benzo[de]pyrano[3′,4′:6,7]indolizino[1,2-b]quinolin-1-yl)-2-hydroxyacetamide]: the IC50 was found to be 6.42 nM in test [1] and 2.4 nM in test [2] (NCI-N87, […]).
Taken in the same sequence, the figures for `Cc1c(F)cc2nc3c(c4c2c1CC[C@H]4NC(=O)[C@H](O)C1CC1)Cn1c-3cc2c(c1=O)COC(=O)[C@]2(O)CC1CC1` [Compound 5-B, (R)-2-Cyclopropyl-N-((1R,9S)-9-(cyclopropylmethyl)-5-fluoro-9-hydroxy-4-methyl-10,13-dioxo-2,3,9,10,13,15-hexahydro-1H,12H-benzo[de]pyrano[3′,4′:6,7]indolizino[1,2-b]quinolin-1-yl)-2-hydroxyacetamide] were 4.92 nM and 2.96 nM.
Taken in the same sequence, the figures for `CC[C@@]1(O)C(=O)OCc2c1cc1n(c2=O)Cc2c-1nc1cc(F)c3c(c1c2CNC(=O)[C@H](C)O)CCC3` [Compound 25, (S)-N-(((S)-8-Ethyl-4-fluoro-8-hydroxy-9,12-dioxo-2,3,8,9,12,14-hexahydro-1H,11H-cyclopenta[f]pyrano[3′,4′:6,7]indolizino[1,2-b]quinolin-15-yl)methyl)-2-hydroxypropanamide] were 5.41 nM and 5.46 nM.
